Assay results reported in ChEMBL document CHEMBL5260810, “Inhibition of bromodomain-containing protein 9 for the prevention of epigenetically-defined drug resistance” (Bioorg Med Chem Lett, 2017).

Assays:
AMO1 = experiment: Cytotoxicity against human AMO1 cells measured after 8 days; format: functional, cell-based; settings: AMO1, 192 h
[1] = Cytotoxicity against human NCI-H2106 cells measured after 8 days; format: functional, cell-based; settings: NCI-H2106, 192 h
MHH-PREB-1 = experiment: Cytotoxicity against human MHH-PREB-1 cells measured after 8 days; format: functional, cell-based; settings: MHH-PREB-1, 192 h
OCI-LY19 = experiment: Cytotoxicity against human OCILY19 cells measured after 8 days; format: functional, cell-based; settings: OCI-LY19, 192 h
SU-DHL-1 = experiment: Cytotoxicity against human SU-DHL-1 cells measured after 8 days; format: functional, cell-based; settings: SU-DHL-1, 192 h
WSUDLCL2 = experiment: Cytotoxicity against human WSUDLCL2 cells measured after 8 days; format: functional, cell-based; settings: WSUDLCL2, 192 h
HCC1143 = experiment: Cytotoxicity against human HCC1143 cells measured after 8 days; format: functional, cell-based; settings: HCC1143, 192 h
[2] = Cytotoxicity against human OVCAR433 cells measured after 8 days; format: functional, cell-based; settings: OVCAR433, 192 h
[3] = Cytotoxicity against human KPL-1 cells measured after 8 days; format: functional, cell-based; settings: KPL-1, 192 h
[4] = Cytotoxicity against human SW527 cells measured after 8 days; format: functional, cell-based; settings: SW527, 192 h
COLO 205 = experiment: Cytotoxicity against human COLO 205 cells measured after 8 days; format: functional, cell-based; settings: COLO 205, 192 h
UACC-62 = experiment: Cytotoxicity against human UACC-62 cells measured after 8 days; format: functional, cell-based; settings: UACC-62, 192 h
[5] = molecular target: Bromodomain-containing protein 2 (Homo sapiens, UniProt P25440); experiment: Binding affinity to human partial length BRD2 bromodomain 2 isoform 1 (E348 to D455 residues) expressed in bacterial expression system by BROMOscan assay
Chain of Bromodomain-containing protein 2 (P25440 whole entry, the tested form may be a part, canonical isoform): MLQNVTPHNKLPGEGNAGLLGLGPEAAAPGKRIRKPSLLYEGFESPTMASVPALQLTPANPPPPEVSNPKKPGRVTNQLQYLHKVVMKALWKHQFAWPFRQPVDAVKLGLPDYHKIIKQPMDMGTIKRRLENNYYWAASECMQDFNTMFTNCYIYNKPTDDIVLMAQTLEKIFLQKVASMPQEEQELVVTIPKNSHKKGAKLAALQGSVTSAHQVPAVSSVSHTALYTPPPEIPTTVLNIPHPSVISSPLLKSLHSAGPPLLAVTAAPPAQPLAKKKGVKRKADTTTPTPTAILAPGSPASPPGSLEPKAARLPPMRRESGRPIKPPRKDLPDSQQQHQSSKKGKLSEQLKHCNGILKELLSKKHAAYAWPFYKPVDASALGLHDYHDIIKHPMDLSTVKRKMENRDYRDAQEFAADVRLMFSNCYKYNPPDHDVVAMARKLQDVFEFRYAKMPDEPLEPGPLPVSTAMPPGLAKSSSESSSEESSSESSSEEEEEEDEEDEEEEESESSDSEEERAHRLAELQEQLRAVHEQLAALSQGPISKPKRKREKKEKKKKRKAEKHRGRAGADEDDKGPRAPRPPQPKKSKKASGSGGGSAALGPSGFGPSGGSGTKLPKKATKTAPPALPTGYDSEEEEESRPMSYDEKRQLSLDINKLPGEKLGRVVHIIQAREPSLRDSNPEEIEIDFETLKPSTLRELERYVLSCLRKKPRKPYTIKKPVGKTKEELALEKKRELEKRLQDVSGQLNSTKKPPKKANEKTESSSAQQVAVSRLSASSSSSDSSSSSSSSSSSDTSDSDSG

[6] = molecular target: Bromodomain testis-specific protein (Homo sapiens, UniProt Q58F21); experiment: Binding affinity to human partial length BRDT bromodomain 1 (N21 to E137 residues) expressed in bacterial expression system by BROMOscan assay
Peregrin = molecular target: T1, Peregrin (Homo sapiens, UniProt P55201); experiment: Binding affinity to human partial length BRPF1 (E627 to G740 residues) expressed in bacterial expression system by BROMOscan assay
T1 sequence (P55201 whole entry): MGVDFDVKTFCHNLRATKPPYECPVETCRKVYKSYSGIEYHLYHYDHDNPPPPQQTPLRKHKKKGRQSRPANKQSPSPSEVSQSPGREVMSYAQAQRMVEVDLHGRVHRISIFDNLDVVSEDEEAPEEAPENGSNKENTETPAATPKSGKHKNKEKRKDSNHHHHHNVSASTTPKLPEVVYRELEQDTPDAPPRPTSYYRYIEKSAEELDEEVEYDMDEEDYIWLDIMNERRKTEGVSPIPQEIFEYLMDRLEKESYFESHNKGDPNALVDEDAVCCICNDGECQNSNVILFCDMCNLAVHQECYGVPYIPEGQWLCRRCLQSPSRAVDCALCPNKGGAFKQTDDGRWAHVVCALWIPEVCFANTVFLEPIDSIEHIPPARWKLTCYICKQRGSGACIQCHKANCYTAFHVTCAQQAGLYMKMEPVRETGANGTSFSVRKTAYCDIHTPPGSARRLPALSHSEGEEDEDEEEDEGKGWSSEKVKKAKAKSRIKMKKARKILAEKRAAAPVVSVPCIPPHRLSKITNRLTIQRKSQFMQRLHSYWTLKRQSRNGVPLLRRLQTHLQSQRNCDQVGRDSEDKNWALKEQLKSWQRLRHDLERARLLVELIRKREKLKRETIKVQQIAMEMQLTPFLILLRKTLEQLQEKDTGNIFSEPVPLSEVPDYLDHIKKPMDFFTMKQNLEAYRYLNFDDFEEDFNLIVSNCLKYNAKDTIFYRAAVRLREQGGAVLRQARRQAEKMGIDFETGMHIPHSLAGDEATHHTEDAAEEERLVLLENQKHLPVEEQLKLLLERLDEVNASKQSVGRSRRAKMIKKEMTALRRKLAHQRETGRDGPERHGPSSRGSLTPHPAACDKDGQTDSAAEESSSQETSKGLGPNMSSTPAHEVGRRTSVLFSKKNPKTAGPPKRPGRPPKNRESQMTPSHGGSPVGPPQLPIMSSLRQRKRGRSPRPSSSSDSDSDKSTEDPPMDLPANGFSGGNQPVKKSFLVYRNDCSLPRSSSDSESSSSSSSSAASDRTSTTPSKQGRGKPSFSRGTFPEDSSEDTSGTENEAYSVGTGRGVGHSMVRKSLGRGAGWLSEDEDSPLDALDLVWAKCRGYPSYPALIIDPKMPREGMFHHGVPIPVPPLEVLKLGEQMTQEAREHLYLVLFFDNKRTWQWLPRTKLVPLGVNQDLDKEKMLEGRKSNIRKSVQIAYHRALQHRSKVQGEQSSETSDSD

[7] = molecular target: cAMP-dependent protein kinase (PKA) (Homo sapiens) (UniProt P22694+P17612+P22612); experiment: Inhibition of PKA (unknown origin) at 1 uM relative to control; format: protein assay
[8] = molecular target: High affinity nerve growth factor receptor (Homo sapiens) (UniProt P04629); experiment: Inhibition of TrkA (unknown origin) at 1 uM relative to control
Chain of High affinity nerve growth factor receptor (Homo sapiens) (P04629 33-796 limits assumed): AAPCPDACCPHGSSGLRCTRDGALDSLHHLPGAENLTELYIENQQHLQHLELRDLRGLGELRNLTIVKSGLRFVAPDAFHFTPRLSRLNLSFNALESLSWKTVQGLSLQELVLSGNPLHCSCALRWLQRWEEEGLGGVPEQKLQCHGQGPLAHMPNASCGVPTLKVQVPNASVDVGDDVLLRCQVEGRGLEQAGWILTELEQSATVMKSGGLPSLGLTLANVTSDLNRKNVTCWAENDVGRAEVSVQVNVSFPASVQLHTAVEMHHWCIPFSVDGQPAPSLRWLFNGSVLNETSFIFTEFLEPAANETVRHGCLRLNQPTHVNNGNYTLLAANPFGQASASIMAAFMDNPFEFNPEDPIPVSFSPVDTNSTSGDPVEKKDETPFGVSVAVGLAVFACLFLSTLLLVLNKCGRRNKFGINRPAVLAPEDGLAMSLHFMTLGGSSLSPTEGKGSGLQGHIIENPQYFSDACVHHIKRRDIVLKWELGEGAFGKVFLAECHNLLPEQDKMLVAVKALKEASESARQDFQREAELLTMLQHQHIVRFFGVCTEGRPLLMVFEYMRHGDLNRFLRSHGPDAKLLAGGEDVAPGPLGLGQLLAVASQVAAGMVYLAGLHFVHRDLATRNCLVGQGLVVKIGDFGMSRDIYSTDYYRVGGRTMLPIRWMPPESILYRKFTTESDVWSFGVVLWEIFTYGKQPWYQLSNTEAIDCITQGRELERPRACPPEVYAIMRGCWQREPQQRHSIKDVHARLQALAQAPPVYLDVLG

[9] = molecular target: T2, Muscarinic acetylcholine receptor M2 (Homo sapiens) (UniProt P08172); experiment: Displacement of [3H]AF-DX 384 from human recombinant M2 receptor at 10 uM after 60 mins by scintillation counting analysis relative to control
T2 sequence (whole entry): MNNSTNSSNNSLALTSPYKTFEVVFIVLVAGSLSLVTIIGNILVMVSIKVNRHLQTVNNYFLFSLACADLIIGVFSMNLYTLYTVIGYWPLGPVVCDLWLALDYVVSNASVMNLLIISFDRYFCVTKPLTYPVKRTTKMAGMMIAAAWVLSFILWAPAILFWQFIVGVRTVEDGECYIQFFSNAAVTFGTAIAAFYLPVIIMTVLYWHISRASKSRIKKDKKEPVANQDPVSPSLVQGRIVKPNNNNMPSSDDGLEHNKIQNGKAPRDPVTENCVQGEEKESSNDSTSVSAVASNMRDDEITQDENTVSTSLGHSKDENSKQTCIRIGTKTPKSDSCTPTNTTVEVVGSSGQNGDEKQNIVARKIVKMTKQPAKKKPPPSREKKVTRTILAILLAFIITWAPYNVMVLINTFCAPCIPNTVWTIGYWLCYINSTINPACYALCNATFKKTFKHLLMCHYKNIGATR

| SMILES | IC50 (AMO1) [µM] | IC50 [1] [µM] | IC50 (MHH-PREB-1) [µM] | IC50 (OCI-LY19) [µM] | IC50 (SU-DHL-1) [µM] | IC50 (WSUDLCL2) [µM] | IC50 (HCC1143) [µM] | IC50 [2] [µM] | IC50 [3] [µM] | IC50 [4] [µM] | IC50 (COLO 205) [µM] | IC50 (UACC-62) [µM] | Kd [5] [µM] | Kd [6] [µM] | Kd (Peregrin) [µM] | inhibition [7] [%] | inhibition [8] [%] | Activity [9] [%] |
| --- | --- | --- | --- | --- | --- | --- | --- | --- | --- | --- | --- | --- | --- | --- | --- | --- | --- | --- |
| C/C=C/Cn1cc(-c2ccc(C(=O)N3CCOCC3)cc2)c2cc[nH]c2c1=O | 20 | 20 | 20 | 20 | 20 | 8.31 | 20 | 20 | 20 | 20 | 20 | 20 | 4.3 | 2.5 | > 10 | -6.8 | 21.4 | -7 |
| C/C=C/Cn1cc(-c2cc(OC)c(C(C)(C)O)cc2OC)c2cc(C)[nH]c2c1=O |  |  |  |  |  |  |  |  |  |  |  |  | > 10 | 2.1 | > 10 |  |  |  |
| C/C=C/Cn1cc(-c2cc(OC)c(C(=O)N3CCOCC3)cc2OC)c2cc(C)[nH]c2c1=O | 2 | 2 | 2 | 2 | 2 | 2 | 2 | 2 | 2 | 2 | 2 | 2 | > 10 | > 10 | > 10 | 6 | 12 | -8 |
| C/C=C/Cn1cc(-c2ccc(C(C)(C)O)cc2OC)c2cc[nH]c2c1=O | 20 | 20 | 20 | 14.9 | 20 | 7.32 | 20 | 20 | 17.5 | 20 | 20 | 20 | 3.3 | 0.83 | > 10 | 3 | 12.5 | -10 |
